We go through five compounds from US7049337B2 (Wayne State University, priority 2000, dated 2006).

One test deals with T1, human D3 receptor (Homo sapiens, UniProt P35462).
T1 construct: expressed in transfected cells; host or cells: HEK 293 cells, stably transfected (Watts and colleagues, Oregon Health Sciences University); membranes prepared from the cells
The test is described as follows: [3H]spiperone binding to cloned human D3 receptors in HEK 293 cell membranes. The note with it: for D3 receptor activity compared with control, in words: displacing [3H]spiperone from D3 receptors in HEK cells, racemic compounds versus (+)-7-OH-DPAT; for D2L/D3L: ratio of Ki D2L to Ki D3; for Differential activity (D2L/D3) compared with control, in words: versus (+)-7-OH-DPAT control. As for the experimental part:
(§1) The target compounds synthesized were assayed for differential CNS activity by binding studies employing cloned human receptors expressed in HEK cells. […] The compounds were evaluated for their binding at the D2 and D3 receptors.
(§2) Binding affinities of these novel compounds were assessed according to previously published procedures. V. J. Watts et al., EUR. J. PHARMACOL., 1993, 239,271; V. J. Watts et al., EUR. J. PHARMACOL., 1996, 50, 966. Human embryonic kidney (HEK) 293 cells were stably transfected with cDNA for the human D2L and D3 receptors by Watts and colleagues at Oregon Health Sciences University in accordance with published procedures; V. J. Watts, MOL. PHARMACOL, op. cit., and graciously shipped to the University of Illinois for receptor binding assays. Membranes were prepared from the cells as described previously, V. J. Watts et al., EUR. J. PHARMACOL., 1993, op. cit. […] (+)-Butaclamol (2 ,μM) was used to define nonspecific binding. Assays were terminated with a 24-pin Brandel harvester as described previously, M. E. A. Reith et al., BIOL. CHEM. 1986, 261, 7300. IC50 values were estimated by nonlinear regression analysis with the ALLFIT equation, and converted to inhibition constants (Ki) by the Cheng-Prusoff equation as in previous work, Reith et al., J. BIOL. CHEM., op. cit.

The next test has as its target T2, human D2L receptor (Homo sapiens, UniProt P14416).
T2 construct: expressed in transfected cells; host or cells: HEK 293 cells, stably transfected (Watts and colleagues, Oregon Health Sciences University); membranes prepared from the cells
The test is described as follows: [3H]spiperone binding to cloned human D2L receptors in HEK 293 cell membranes. The protocol:
as §1, §2

The mark [1] stands for this setting: cloned human D2L in HEK cells, 0.4 nM [3H]spiperone, 1 h, 30° C., no GTP, mean ± spread (n).

Like-named read-outs stand apart in the source and are kept apart here.

T1 sequence (P35462 whole entry): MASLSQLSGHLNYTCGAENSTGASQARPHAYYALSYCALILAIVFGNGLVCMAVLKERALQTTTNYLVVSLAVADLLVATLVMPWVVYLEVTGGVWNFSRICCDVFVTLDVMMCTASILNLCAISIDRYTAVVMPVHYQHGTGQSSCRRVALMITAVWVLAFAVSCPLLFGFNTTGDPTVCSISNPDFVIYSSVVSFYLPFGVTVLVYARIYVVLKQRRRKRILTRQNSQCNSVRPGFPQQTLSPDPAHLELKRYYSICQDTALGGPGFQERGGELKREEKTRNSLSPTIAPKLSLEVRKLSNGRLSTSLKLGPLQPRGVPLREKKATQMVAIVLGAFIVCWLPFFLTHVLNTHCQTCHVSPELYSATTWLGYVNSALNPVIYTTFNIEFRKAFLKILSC
T2 sequence (P14416 whole entry): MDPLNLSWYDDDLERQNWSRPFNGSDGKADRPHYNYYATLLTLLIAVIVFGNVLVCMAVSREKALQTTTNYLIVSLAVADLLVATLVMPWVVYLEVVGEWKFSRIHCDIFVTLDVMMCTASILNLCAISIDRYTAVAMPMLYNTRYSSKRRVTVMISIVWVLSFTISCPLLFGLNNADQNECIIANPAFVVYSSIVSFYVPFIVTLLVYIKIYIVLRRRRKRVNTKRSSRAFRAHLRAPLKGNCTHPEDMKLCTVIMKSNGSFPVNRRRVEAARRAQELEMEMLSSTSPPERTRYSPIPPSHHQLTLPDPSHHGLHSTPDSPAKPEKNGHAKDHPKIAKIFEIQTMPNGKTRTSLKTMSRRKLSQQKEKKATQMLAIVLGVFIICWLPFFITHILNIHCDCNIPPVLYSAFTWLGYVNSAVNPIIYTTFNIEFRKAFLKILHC

For `C#CCN(CCCC)C1CCc2ccc(O)cc2C1` (racemic) [Example 4, (R,S)-trans-7-Hydroxy-2-[N-propynyl-N-(butyl-amino]tetralin], on human D3 receptor, the Ki worked out at 4.9 ± 1.2 nM; the “D3 receptor activity compared with control, in words” value was “about as active as the (+) isomer”; the D2L/D3L was determined as 108; the “Differential activity (D2L/D3) compared with control, in words” value (“Differential activity (D2L/D3)” for short) is “slightly greater activity differential”. This compound also came in with an inhibitory constant (Ki) on human D2L receptor (setting [1]) of 534 ± 72 nM.

`C#CCN(CC)C1CCc2ccc(O)cc2C1` (racemic) [Example 5, (R,S)-trans-7-Hydroxy-2-[N-propynyl-N-ethyl-amino]tetralin]: at human D3 receptor, the Ki is 13.8 ± 2.8 nM; the “D3 receptor activity compared with control, in words” value is “high activity, though not as high as the compound of Example 4 or the control”; the D2L/D3L came to 108; the “Differential activity (D2L/D3)” value was “as high as the compound of Example 4”. At human D2L receptor (setting [1]), this compound gave an inhibition constant (Ki) of 1490 nM.

As for `C#CCN(CCc1ccc(F)cc1)C1CCc2ccc(O)cc2C1` (racemic) [Example 6, (R,S)-trans-7-Hydroxy-2-[N-propynyl-N-ethyl(4′-fluorophenyl)amino]tetralin], at human D3 receptor, the affinity corresponds to a Ki of 14.5 ± 4.1 nM; the D2L/D3L is 111; the “Differential activity (D2L/D3)” value was “about the same as the control”. Further, the Ki at human D2L receptor (setting [1]) worked out at 1610 nM.

Take `C#CCN(CCc1cccs1)C1CCc2ccc(O)cc2C1` (racemic) [Example 7, (R,S)-trans-7-Hydroxy-2-[N-propynyl-N-ethyl(thienyl)-amino]tetralin]: on human D3 receptor, the “D3 receptor activity compared with control, in words” value is “about the same as the control”; the D2L/D3L worked out at 211; the “Differential activity (D2L/D3)” value is recorded as “more than double the activity differential of the control”. At human D3 receptor (read-out: D3 HEK Cells [^3H]spiperone, Ki, cloned human D3 in HEK cells, 0.4 nM [3H]spiperone, 1 h, 30° C., no GTP, mean ± spread (n)), the Ki was 8 ± 0.3 nM. Further, the inhibition constant (Ki) at human D2L receptor (read-out: D2L HEK Cells [^3H]spiperone, Ki, […] nM [3H]spiperone, 1 h, 30° C., no GTP, mean ± spread (n)) was found to be 1700 nM.

On to `C#CCN(CCCC#N)C1CCc2ccc(O)cc2C1` (racemic) [Example 8, (R,S)-trans-7-Hydroxy-2-[N-propynyl-N-(3′-cyano-1′-propyl)amino]tetralin], for which affinity on human D3 receptor (cloned human D3 in HEK cells, 0.4 nM [3H]spiperone, 1 h, 30° C., no GTP, mean ± spread (n)) was put at a Ki of 23.5 ± 4.7 nM. On human D3 receptor, the “D3 receptor activity compared with control, in words” value is recorded as “about the same as the control”; the D2L/D3L turned out to be 353; the “Differential activity (D2L/D3)” value is on record as “more than double the activity differential of the control”. Moreover, the inhibition constant Ki at human D2L receptor (setting [1]) was determined as 8310 nM.
